Assay results as given in patent publication US10301255B2, “Hepatitis B antiviral agents” (Enanta Pharmaceuticals, Inc., priority 2015, dated 2019).

System: HBV
Assay: HepAD38 antiviral assay: reduction of viral product accumulation (virion DNA by qPCR; HBsAg/HBeAg ELISA)
Assay type: cell-based
Conditions: Hepatitis B virus, 120 h; HepAD38 cells, tetracycline removed; harvest five days after compound addition; 50% reduction of viral product vs no drug controls
Procedure: (§1) Methods: HepAD38 cells are maintained as previously reported (Ladner et at, Antimicrob. Agents Chemother. 1997, […], 1715). Briefly, cells are passaged upon attaining confluency in DMEM/F12 media in the presence of 10% FBS, Penn/Strep, 250 μg/mL G418, and 1 ug/ml tetracycline. Novel compounds are screened by first washing cells three times with PBS to remove tetracycline, and plating in 96 well plates at 35,000 cells/well. Compounds dissolved in DMSO are then diluted 1:200 into wells containing cells. Five days after compound addition, material is harvested for analysis. For an extended 8 day analysis, cells are plated and treated as described above, but media and compound are refreshed on d2 and d5 post initial treatment.
On harvest day, virion DNA is obtained by lysing with Sidestep Lysis and Stabilization Buffer and then quantified via quantitative real time PCR. Commercially available ELISA kits are used to quantitate the viral proteins HBsAg (Alpco) or HbeAg (US Biological) by following the manufacturer's recommended protocol after diluting samples to match the linear range of their respective assays. Irrespective of readout, compound concentrations that reduce viral product accumulation in the cell lysates or supernatants by 50% relative to no drug controls (EC50) are reported; EC50 ranges are as follows: A<1 μM; […].
Work on O=C(Nc1cc(F)c(F)c(F)c1)c1ccc(Cl)c(C(F)(F)CCCO)c1 [Compound 1] yielded an EC50 of under 1 µM.
Work on COC(=O)OCCCC(F)(F)c1cc(C(=O)Nc2cc(F)c(F)c(F)c2)ccc1Cl [Compound 2] yielded an EC50 of 1 to 10 µM.
For O=C(Nc1cc(F)c(F)c(F)c1)c1ccc(Cl)c(C(F)(F)CCCF)c1 [Compound 3], the EC50 was under 1 µM.
N#Cc1cc(NC(=O)c2ccc(Cl)c(C(F)(F)CCCO)c2)ccc1Cl [Compound 4] showed an EC50 of over 10 µM.
COc1ccc(NC(=O)c2ccc(Cl)c(C(F)(F)CCCO)c2)cc1C#N [Compound 5] showed an EC50 of over 10 µM.
With COc1ccc(NC(=O)c2ccc(Cl)c(C(F)(F)CCCO)c2)cc1C1CC1 [Compound 6] the EC50 was 1 to 10 µM.
In the case of CCNC(=O)OCCCC(F)(F)c1cc(C(=O)Nc2ccc(Cl)c(C#N)c2)ccc1Cl [Compound 7], the EC50 is reported as over 10 µM.
N#Cc1cc(NC(=O)c2ccc(Cl)c(C(F)(F)CCCOC(=O)NCc3ccccc3)c2)ccc1Cl [Compound 8] gave an EC50 of over 10 µM.
N#Cc1cc(NC(=O)c2ccc(Cl)c(C(F)(F)CCCOC(=O)Nc3ccccc3)c2)ccc1Cl [Compound 9] showed an EC50 of over 10 µM.
For CC(C)(C)NC(=O)OCCCC(F)(F)c1cc(C(=O)Nc2ccc(Cl)c(C#N)c2)ccc1Cl [Compound 10], the EC50 was over 10 µM.
Molecule O=C(Nc1ccc(C(F)(F)F)c(C2CC2)c1)c1ccc(Cl)c(C(F)(F)CCCO)c1 [Compound 11] has an EC50 of over 10 µM.
Work on O=C(Nc1ccc(C2CC2)c(Cl)c1)c1ccc(Cl)c(C(F)(F)CCCO)c1 [Compound 12] yielded an EC50 of over 10 µM.
Molecule N#Cc1ccc(NC(=O)c2ccc(Cl)c(C(F)(F)CCCO)c2)cc1F [Compound 13] has an EC50 of over 10 µM.
N#Cc1ccc(NC(=O)c2ccc(Cl)c(C(F)(F)CCCO)c2)cc1Cl [Compound 14] gave an EC50 of over 10 µM.
O=C(Nc1ccc(F)c(C2CC2)c1)c1ccc(Cl)c(C(F)(F)CCCO)c1 [Compound 15] gave an EC50 of over 10 µM.
In the case of O=C(Nc1ccc(F)c(C(F)(F)F)c1)c1ccc(Cl)c(C(F)(F)CCCO)c1 [Compound 16], the EC50 is reported as over 10 µM.
With O=C(Nc1ccc(F)c(Cl)c1)c1ccc(Cl)c(C(F)(F)CCCO)c1 [Compound 17] the EC50 was over 10 µM.
In the case of O=C(Nc1ccc(C(F)(F)F)c(Cl)c1)c1ccc(Cl)c(C(F)(F)CCCO)c1 [Compound 18], the EC50 is reported as over 10 µM.
Molecule N#Cc1ccc(NC(=O)c2ccc(Cl)c(C(F)(F)CCCO)c2)cc1C(F)(F)F [Compound 19] has an EC50 of over 10 µM.
With OCCCC(F)(F)c1cc(-c2nc(-c3ccc(F)c(Br)c3)c[nH]2)ccc1Cl [Compound 20] the EC50 was over 10 µM.
For CC(F)(CCCO)c1cc(C(=O)Nc2cc(F)c(F)c(F)c2)ccc1Cl (stereo not drawn) [Compound 21], the EC50 was over 10 µM.
In the case of O=C(Nc1cc(F)c(F)c(F)c1)c1ccc(Cl)c(C(O)CCCO)c1 (stereo not drawn) [Compound 22], the EC50 is reported as over 10 µM.
Molecule O=C(Nc1cc(F)c(F)c(F)c1)c1ccc(Cl)c(C(F)CCCO)c1 (stereo not drawn) [Compound 23] has an EC50 of over 10 µM.

System: not listed separately
Assay: Compound toxicity by ATPlite 1 Step (total ATP levels)
Assay type: cell-based
Conditions: human; HepAD38 cells, day of harvest; 50% reduction of total ATP vs no drug controls
Procedure: as §1
Additionally, on day of harvest, compound toxicity is evaluated by treating cells with ATPlite 1 Step according to the manufacturer's protocol. Compound concentrations that reduce total ATP levels in wells by 50% relative to no drug controls (CC50) are reported; CC50 ranges are as follows: […].
For O=C(Nc1cc(F)c(F)c(F)c1)c1ccc(Cl)c(C(F)(F)CCCO)c1 [Compound 1], the CC50 was under 10 µM.
For COC(=O)OCCCC(F)(F)c1cc(C(=O)Nc2cc(F)c(F)c(F)c2)ccc1Cl [Compound 2], the CC50 was 10 to 30 µM.
In the case of O=C(Nc1cc(F)c(F)c(F)c1)c1ccc(Cl)c(C(F)(F)CCCF)c1 [Compound 3], the CC50 is reported as under 10 µM.
Work on CC(F)(CCCO)c1cc(C(=O)Nc2cc(F)c(F)c(F)c2)ccc1Cl (stereo not drawn) [Compound 21] yielded a CC50 of over 30 µM.
